Molecular target: Sodium-dependent noradrenaline transporter (Rattus norvegicus)
Test: In vitro binding affinity against norepinephrine transporter using [3H]-nisoxetine as radioligand

Ki [nM] | Compound
3110 | Brc1ccc2c(c1)[C@H]1O[C@H](Cn3oc4ccc(CN5CCOCC5)cc43)C[C@H]1c1ccccc1O2 [8-((2S,3aS,12bS)-11-Bromo-2,3,3a,12b-tetrahydro-1,8-dioxa-dibenzo[e,h]azulen-2-ylmethyl)-3-morpholin-4-ylmethyl-7-oxa-8-aza-bicyclo[4.2.0]octa-1(6),2,4-triene]
620 | Nc1ccc2on(C[C@@H]3C[C@H]4c5ccccc5Oc5ccc(Br)cc5[C@H]4O3)c2c1 [8-((2S,3aS,12bS)-11-Bromo-2,3,3a,12b-tetrahydro-1,8-dioxa-dibenzo[e,h]azulen-2-ylmethyl)-7-oxa-8-aza-bicyclo[4.2.0]octa-1(6),2,4-trien-3-ylamine]
2250 | CN(C)c1ccc2on(C[C@@H]3C[C@H]4c5ccccc5Oc5ccc(Br)cc5[C@H]4O3)c2c1 [[8-((2S,3aS,12bS)-11-Bromo-2,3,3a,12b-tetrahydro-1,8-dioxa-dibenzo[e,h]azulen-2-ylmethyl)-7-oxa-8-aza-bicyclo[4.2.0]octa-1(6),2,4-trien-3-yl]-dimethyl-amine]

Source: BindingDB's records for doi:10.1016/j.bmcl.2005.03.076 (Janssen-Cilag, 2005)
